According to patent publication US20250186408A1, “TREATMENT OF PHARMACORESISTANT EPILEPSY” (Katholieke Universiteit Leuven, priority 2021, published 2025):

These molecules were tested on EKP-induced epileptiform discharges in zebrafish larvae (assay: Zebrafish EKP seizure model, electrophysiology (non-invasive LFP recordings, PSD analysis)). Conditions: 2 μM, 22 h, 7 dpf larvae.
Format: in vivo, zebrafish (Danio rerio)
Description: Non-invasive LFP recordings were measured from the midbrain (optic tectum) of 7 dpf zebrafish larvae pre-incubated with VHC only, EKP only, or compound and EKP. […] These steps occurred at 28° C., while further manipulation and electrophysiological recordings occurred at room temperature (±21° C.) and were performed as described before (16, 27). Each recording lasted 600 seconds.
A power spectral density (PSD) analysis of the recordings was performed using MatLab R2019 software (MATrix LABoratory, USA) as described in (26). The PSD estimate of each LFP recording was summed over each 10 Hz frequency band, ranging from 0 to 160 Hz. Next, the PSD estimates were normalized against the VHC control. Data are expressed as mean±SEM PSD per larva and per condition over the 20-90 Hz region. Outliers were identified via the ROUT test (Q=1%).
PSD analysis assumes that the epileptiform activity manifests as a high-power oscillation at certain frequencies (26). Thus, if epileptic activity occurs often during the recording an elevated PSD estimate should be found at the corresponding frequency band(s) (26).

SMILES | effect on EKP-induced elevated PSD (in words)
Cn1nc(C#Cc2cccc(Cl)c2)c2cccnc21 [Compound 10.2, 3-((3-chlorophenyl)ethynyl)-1-methyl-1H-pyrazolo[3,4-b]pyridine] | did not

Same assay, conditions: 2 μM, 22 h incubation, 7 dpf larvae; mean, normalized PSD 20-90 Hz

SMILES | efficacy against EKP-induced epileptiform discharges 2 μM
O=C(C#Cc1ccccc1Cl)c1ccccc1 [Compound 1.38, 3-(2-chlorophenyl)-1-phenylprop-2-yn-1-one] | −63%
CC(C)(C)c1ccc(C#CC(=O)c2cccnc2)cc1 [Compound 1.15, 3-(4-(tert-butyl)phenyl)-1-(pyridin-3-yl)prop-2-yn-1-one] | −49%
O=C(C#Cc1ccccc1)c1ccccc1 [Compound 1.28, 1,3-diphenylprop-2-yn-1-one] | 25%
COc1ccc(C#CC(=O)c2ccccc2)cc1 [Compound 1.29, 3-(4-methoxyphenyl)-1-phenylprop-2-yn-1-one] | 26%
Clc1cccc(C#Cc2n[nH]c3ccccc23)c1 [Compound 11.1, 3-((3-chlorophenyl)ethynyl)-1H-indazole] | 60%
CC(C)(C)c1ccc(C#CC=O)cc1 [Compound 2.1, 3-(4-(tert-butyl)phenyl)propiolaldehyde] | 30%
CC(C)(C)c1ccc(C#CC(=O)c2ccccc2N)cc1 [Compound 1.14, 1-(2-aminophenyl)-3-(4-(tert-butyl)phenyl)prop-2-yn-1-one] | 60%
Nc1ncccc1C(=O)/C=C/c1cccc(Cl)c1 [Compound 5.2, (E)-1-(2-aminopyridin-3-yl)-3-(3-chlorophenyl)prop-2-en-1-one] | 55%
Nc1ncccc1C(=O)C#Cc1ccc(C(F)(F)F)cc1 [Compound 1.11, 1-(2-aminopyridin-3-yl)-3-(4-(trifluoromethyl)phenyl)prop-2-yn-1-one] | 47%
COc1ccc(C#CC(=O)c2cccnc2N)cc1 [Compound 1.9, 1-(2-aminopyridin-3-yl)-3-(4-methoxyphenyl)prop-2-yn-1-one] | 35%
Nc1ccccc1C(=O)C#Cc1cccc(Cl)c1 [Compound 1.40, 1-(2-aminophenyl)-3-(3-chlorophenyl)prop-2-yn-1-one] | 82%
COC(=O)c1ccc(C#CC(=O)c2cccnc2N)cc1 [Compound 1.8, methyl 4-(3-(2-aminopyridin-3-yl)-3-oxoprop-1-yn-1-yl)benzoate] | 18%
Nc1ncccc1C(=O)C#CC1CCCCC1 [Compound 1.4, 1-(2-aminopyridin-3-yl)-3-cyclohexylprop-2-yn-1-one] | 69%
Cc1ccc(C#CC(=O)c2ccccc2)cc1 [Compound 1.30, 1-phenyl-3-(p-tolyl)prop-2-yn-1-one] | 28%
Cn1nc(C#Cc2cccc(Cl)c2)c2cccnc21 [Compound 10.2, 3-((3-chlorophenyl)ethynyl)-1-methyl-1H-pyrazolo[3,4-b]pyridine] | 19%
COc1ccccc1C#CC(=O)c1ccccc1 [Compound 1.36, 3-(2-methoxyphenyl)-1-phenylprop-2-yn-1-one] | 52%
Nc1ncccc1C(=O)C#Cc1ccc(Cl)cc1 [Compound 1.7, 1-(2-aminopyridin-3-yl)-3-(4-chlorophenyl)prop-2-yn-1-one] | 70%
O=C(C#Cc1cccc(Cl)c1)c1ccccc1 [Compound 1.34, 3-(3-chlorophenyl)-1-phenylprop-2-yn-1-one] | 21%
CN(C)c1ncccc1C(=O)C#Cc1cccc(Cl)c1 [Compound 1.27, 3-(3-chlorophenyl)-1-(2-(dimethylamino)pyridin-3-yl)prop-2-yn-1-one] | −52%
Nc1ncccc1C(=O)C#Cc1cccc(C(F)(F)F)c1 [Compound 1.17, 1-(2-aminopyridin-3-yl)-3-(3-(trifluoromethyl)phenyl)prop-2-yn-1-one] | 61%
CC(C)(C)c1ccc(C#CC(=O)c2ccccc2O)cc1 [Compound 1.19, 3-(4-(tert-butyl)phenyl)-1-(2-hydroxyphenyl)prop-2-yn-1-one] | −23%

SMILES | efficacy against EKP-induced epileptiform discharges 2 μM
Cc1ccccc1C#CC(=O)c1ccccc1 [Compound 1.37, 1-phenyl-3-(o-tolyl)prop-2-yn-1-one] | 28%
Cc1cccc(C#CC(=O)c2ccccc2)c1 [Compound 1.33, 1-phenyl-3-(m-tolyl)prop-2-yn-1-one] | 50%
CC(C)(C)c1ccc(C#CC(=O)c2ccccc2)cc1 [Compound 1.16, 3-(4-(tert-butyl)phenyl)-1-phenylprop-2-yn-1-one] | 38%
Nc1ncccc1C(O)C#Cc1cccc(Cl)c1 (racemic) [Compound 3.4, rac-1-(2-aminopyridin-3-yl)-3-(3-chlorophenyl)prop-2-yn-1-ol] | 7%
CC(C)[Si](C#CC(=O)c1cccnc1N)(C(C)C)C(C)C [Compound 1.3, 1-(2-aminopyridin-3-yl)-3-(triisopropylsilyl)prop-2-yn-1-one] | 67%
CCSC(=CC(=O)c1ccccc1)c1ccc(C(C)(C)C)cc1 (mixture of isomers) [Compound 5.1, (E/Z)-3-(4-(tert-butyl)phenyl)-3-(ethylthio)-1-phenylprop-2-en-1-one] | 36%
CC(C)(C)c1ccc(C2=CC(c3ccccc3)=CS(C)(=O)=C2)cc1 (stereo not shown) [Compound 9.1, 3-(4-(tert-butyl)phenyl)-1-methyl-5-phenyl-1λ^6-thiopyran 1-oxide] | 51%
CCCCCC#CC(=O)c1cccnc1N [Compound 1.5, 1-(2-aminopyridin-3-yl)oct-2-yn-1-one] | 91%
O=C(C#Cc1cccc(Cl)c1)c1ncc[nH]1 [Compound 1.26, 3-(3-chlorophenyl)-1-(1H-imidazol-2-yl)prop-2-yn-1-one] | 51%
CC(C)C#CC(=O)c1cccnc1N [Compound 1.6, 1-(2-aminopyridin-3-yl)-4-methylpent-2-yn-1-one] | 1%
O=C(C#Cc1cccc(Cl)c1)c1cccnc1 [Compound 1.25, 3-(3-chlorophenyl)-1-(pyridin-3-yl)prop-2-yn-1-one] | −43%
COc1ccccc1C(O)C#Cc1ccc(C(C)(C)C)cc1 (racemic) [Compound 3.1, rac-3-(4-(tert-butyl)phenyl)-1-(2-methoxyphenyl)prop-2-yn-1-ol] | 79%
Nc1ncccc1C(=O)C#Cc1ccccc1 [Compound 1.1, 1-(2-aminopyridin-3-yl)-3-phenylprop-2-yn-1-one] | 65%
Nc1ncccc1C(=O)C#Cc1cccc(Cl)c1 [Compound 1.10, 1-(2-aminopyridin-3-yl)-3-(3-chlorophenyl)prop-2-yn-1-one] | −42%
COc1cccc(C#CC(=O)c2ccccc2)c1 [Compound 1.32, 3-(3-methoxyphenyl)-1-phenylprop-2-yn-1-one] | 29%
CC(C)(C)c1ccc(C#CC(=O)c2cccc(F)c2)cc1 [Compound 1.39, 3-(4-(tert-butyl)phenyl)-1-(3-fluorophenyl)prop-2-yn-1-one] | −61%
CC(C)(C)c1ccc(C#CC(O)c2ccccc2O)cc1 (racemic) [Compound 3.2, rac-2-(3-(4-(tert-butyl)phenyl)-1-hydroxyprop-2-yn-1-yl)phenol] | 26%
Nc1ncccc1C(=O)C#Cc1ccc(F)cc1 [Compound 1.2, 1-(2-aminopyridin-3-yl)-3-(4-fluorophenyl)prop-2-yn-1-one] | 80%
CC(C)(C)c1ccc(C#CC(=O)c2ncccc2N)cc1 [Compound 1.24, 1-(3-aminopyridin-2-yl)-3-(4-(tert-butyl)phenyl)prop-2-yn-1-one] | 45%
Cc1ccc(C#CC(=O)c2cccnc2N)cc1 [Compound 1.12, 1-(2-aminopyridin-3-yl)-3-(p-tolyl)prop-2-yn-1-one] | 86%
COc1ccccc1C(=O)C#Cc1ccc(C(C)(C)C)cc1 [Compound 1.18, 3-(4-(tert-butyl)phenyl)-1-(2-methoxyphenyl)prop-2-yn-1-one] | 71%

Same assay, conditions: 10 μM, 22 h, 7 dpf larvae

SMILES | effect on EKP-induced elevated PSD (in words)
Cn1nc(C#Cc2cccc(Cl)c2)c2cccnc21 [Compound 10.2, 3-((3-chlorophenyl)ethynyl)-1-methyl-1H-pyrazolo[3,4-b]pyridine] | significant decrease

Same assay, conditions: 10 μM, 22 h incubation, 7 dpf larvae; mean, normalized PSD 20-90 Hz

SMILES | efficacy against EKP-induced epileptiform discharges 10 μM
Cn1nc(C#Cc2cccc(Cl)c2)c2cccnc21 [Compound 10.2, 3-((3-chlorophenyl)ethynyl)-1-methyl-1H-pyrazolo[3,4-b]pyridine] | 76%
Nc1ncccc1C(O)C#Cc1cccc(Cl)c1 (racemic) [Compound 3.4, rac-1-(2-aminopyridin-3-yl)-3-(3-chlorophenyl)prop-2-yn-1-ol] | 7%
CC(C)[Si](C#CC(=O)c1cccnc1N)(C(C)C)C(C)C [Compound 1.3, 1-(2-aminopyridin-3-yl)-3-(triisopropylsilyl)prop-2-yn-1-one] | −23%
CC(C)(C)c1ccc(C#CC(O)c2ccccc2O)cc1 (racemic) [Compound 3.2, rac-2-(3-(4-(tert-butyl)phenyl)-1-hydroxyprop-2-yn-1-yl)phenol] | 57%
CC(C)(C)c1ccc(C#CC(=O)c2ncccc2N)cc1 [Compound 1.24, 1-(3-aminopyridin-2-yl)-3-(4-(tert-butyl)phenyl)prop-2-yn-1-one] | 11%
